According to patent US11952577B2, “Yarrowia lipolytica yeast strains expressing an HMG-CoA reductase having increased activity or expression” (NUCELIS LLC, priority 2009, dated 2024):

Assays:
[1] = system: Yarrowia lipolytica ATCC 90904; test: Cultivation in supplemented CYM001 media, lipid and squalene production; assay type: cell-based; details: 30′C, 300 rpm, 120 h
Protocol: For example, Yarrowia lipolytica ATCC 90904 was cultivated in high Carbon/Nitrogen ratio media (C/N=420, Li. Y-H., Liu, B., Zhao, Z-B., and Bai. F-W. 2006 “Optimized Culture Medium and Fermentation Conditions for Lipid Production by Rhodosporidium toruloides” Chinese Journal of Biotechnology 22(4): 650-656) (hereinafter “CYM001 Media”) supplemented with 0 to 50 μg/ml terbinafine at 30′C, 300 rpm for 120 h.
In another example, Yarrowia lipolytica ATCC 90904 was cultivated in CYM001 media supplemented with 0 to 50 μg/ml Oleic acid at 30′C, 300 rpm for 120 h.
In a further example, Yarrowia lipolytica ATCC 90904 was cultivated in CYM001 media supplemented with 0 to 200 μM clethodim at 30′C, 300 rpm for 120 h.

[2] = system: Yarrowia lipolytica strain polg (Yeastern); test: as above; assay type: cell-based; details: 30′C, 300 rpm, 120 h
Excerpt: Various Yarrowia lipolylica strains are used for lipid and squalene production including ATCC 20688, ATCC 90811, ATCC 90904, ATCC 90812, ATCC MYA-2613, and Yeastern polg. For example, Yarrowia lipolytica strain polg (Yeastern) was cultivated in high Carbon/Nitrogen ratio media (C/N=420, Li, Y-H., Liu. B., Zhao. Z-B., and Bai, F-W. 2006 “Optimized Culture Medium and Fermentation Conditions for Lipid Production by Rhodosporidium toruloides” Chinese Journal of Biotechnology 22(4): 650-656) (hereinafter “CYM001 Media”) supplemented with 0 to 50 μg/ml terbinafine at 30′C, 300 rpm for 120 h.

In the case of `CCCCCCCC/C=C\CCCCCCCC(=O)O` [Oleic acid], the “improvement of lipid accumulation in lipid/CDW over no supplementation” value ([1]; 10 μl/ml) is reported as 10 fold.

In the case of `CCSC(C)CC1CC(=O)C(/C(CC)=N/OC/C=C/Cl)=C(O)C1` (centres unmarked) [clethodim], the “increase in the yield (mg) of squalene per 60-ml flask” value ([1]; 200 μM) is reported as 60 fold.

In the case of `CN(C/C=C/C#CC(C)(C)C)Cc1cccc2ccccc12` [terbinafine], the “total lipid as squalene” value ([2]; 12.5 μg/ml or higher, CYM001 media) is reported as “up to 38%”, the “total lipid/Cell Dry weight” value ([2]; terbinafine-supplemented CYM001 media) is reported as “up to 51%” and the “total lipid as squalene” value ([1]; 12.5 μg/ml or higher) is reported as “up to 18.5%”.
